Measurements from ChEMBL document CHEMBL1681651, “A broad spectrum anticancer nucleoside with selective toxicity against human colon cells in vitro” (2011).

Assays:
Assay type in all cases: functional
U-251 = assay: Growth inhibition of human U251 cells assessed as cell growth at 100 uM after 48 hrs by SRB assay; details: U-251, 48 h, read-out: Activity
DU-145 = assay: Growth inhibition of human DU145 cells assessed as cell growth at 100 uM after 48 hrs by SRB assay; details: DU-145, 48 h, read-out: Activity
SNB-75 = assay: Growth inhibition of human SNB75 cells assessed as cell growth at 1 mM after 48 hrs by SRB assay; details: SNB-75, 48 h, read-out: Activity
SK-OV-3 = assay: Growth inhibition of human SKOV3 cells assessed as cell growth at 1 uM after 48 hrs by SRB assay; details: SK-OV-3, 48 h, read-out: Activity
A549 = assay: Growth inhibition of human A549 cells assessed as cell growth at 10 uM after 48 hrs by SRB assay; details: A549, 48 h, read-out: Activity
NCI-H23 [1] = assay: Growth inhibition of human NCI-H23 cells assessed as cell growth at 100 uM after 48 hrs by SRB assay; details: NCI-H23, 48 h, read-out: Activity
IGROV-1 [2] = assay: Growth inhibition of human IGROV1 cells assessed as cell growth at 10 uM after 48 hrs by SRB assay; details: IGROV-1, 48 h, read-out: Activity
SF-268 = assay: Growth inhibition of human SF268 cells assessed as cell growth at 1 uM after 48 hrs by SRB assay; details: SF-268, 48 h, read-out: Activity
NCI-H460 [3] = assay: Growth inhibition of human NCI-H460 cells assessed as cell growth at 1 uM after 48 hrs by SRB assay; details: NCI-H460, 48 h, read-out: Activity
HCT-116 = assay: Growth inhibition of human HCT116 cells assessed as cell growth at 0.1 uM after 48 hrs by SRB assay; details: HCT-116, 48 h, read-out: Activity
TK-10 [4] = assay: Growth inhibition of human TK10 cells after 48 hrs by […] growth inhibition assay; details: TK-10, 48 h
KM12 = assay: Growth inhibition of human KM12 cells assessed as cell growth at 0.1 uM after 48 hrs by SRB assay; details: KM12, 48 h, read-out: Activity
UACC-257 = assay: Growth inhibition of human UACC257 cells assessed as cell growth at 100 uM after 48 hrs by SRB assay; details: UACC-257, 48 h, read-out: Activity
SNB-19 = assay: Growth inhibition of human SNB19 cells assessed as cell growth at 1 uM after 48 hrs by SRB assay; details: SNB-19, 48 h, read-out: Activity
UACC-62 [5] = assay: Growth inhibition of human UACC62 cells assessed as cell growth at 0.1 uM after 48 hrs by SRB assay; details: UACC-62, 48 h, read-out: Activity
LOX IMVI = assay: Growth inhibition of human LOXIMVI cells assessed as cell growth at 10 uM after 48 hrs by SRB assay; details: read-out: Activity
NCI-H460 [6] = assay: Growth inhibition of human NCI-H460 cells assessed as cell growth at 10 uM after 48 hrs by SRB assay; details: NCI-H460, 48 h, read-out: Activity
Malme-3M [7] = assay: Growth inhibition of human MALME-3M cells after 48 hrs by […] growth inhibition assay
M14 = assay: Growth inhibition of human M14 cells assessed as cell growth at 0.1 uM after 48 hrs by SRB assay; details: M14, 48 h, read-out: Activity
UO-31 [8] = assay: Growth inhibition of human UO31 cells assessed as cell growth at 10 uM after 48 hrs by SRB assay; details: UO-31, 48 h, read-out: Activity
IGROV-1 [9] = assay: Growth inhibition of human IGROV1 cells after 48 hrs by […] growth inhibition assay; details: IGROV-1, 48 h
UACC-62 [10] = assay: Growth inhibition of human UACC62 cells assessed as cell growth at 100 uM after 48 hrs by SRB assay; details: UACC-62, 48 h, read-out: Activity
IGROV-1 [11] = assay: Growth inhibition of human IGROV1 cells assessed as cell growth at 0.1 uM after 48 hrs by SRB assay; details: IGROV-1, 48 h, read-out: Activity
UACC-62 [12] = assay: Growth inhibition of human UACC62 cells assessed as cell growth at 1 uM after 48 hrs by SRB assay; details: UACC-62, 48 h, read-out: Activity
SK-MEL-5 = assay: Growth inhibition of human SK-MEL-5 cells assessed as cell growth at 10 uM after 48 hrs by SRB assay; details: SK-MEL-5, 48 h, read-out: Activity
CAKI-1 = assay: Growth inhibition of human Caki1 cells assessed as cell growth at 1 uM after 48 hrs by SRB assay; details: CAKI-1, 48 h, read-out: Activity
COLO 205 = assay: Growth inhibition of human COLO205 cells assessed as cell growth at 10 uM after 48 hrs by SRB assay; details: COLO 205, 48 h, read-out: Activity
Malme-3M [13] = assay: Growth inhibition of human MALME-3M cells assessed as cell growth at 0.1 uM after 48 hrs by SRB assay; details: read-out: Activity
[14] = Growth inhibition of human […] cells assessed as cell growth at 1 uM after 48 hrs by SRB assay; details: read-out: Activity
NCI-H226 = assay: Growth inhibition of human NCI-H226 cells assessed as cell growth at 10 uM after 48 hrs by SRB assay; details: NCI-H226, 48 h, read-out: Activity
HT-29 = assay: Growth inhibition of human HT-29 cells assessed as cell growth at 1 mM after 48 hrs by SRB assay; details: HT-29, 48 h, read-out: Activity
UO-31 [15] = assay: Growth inhibition of human UO31 cells assessed as cell growth at 1 mM after 48 hrs by SRB assay; details: UO-31, 48 h, read-out: Activity
HCC 2998 = assay: Growth inhibition of human HCC2998 cells assessed as cell growth at 1 uM after 48 hrs by SRB assay; details: HCC 2998, 48 h, read-out: Activity
TK-10 [16] = assay: Growth inhibition of human TK10 cells assessed as cell growth at 1 mM after 48 hrs by SRB assay; details: TK-10, 48 h, read-out: Activity
NCI-H23 [17] = assay: Growth inhibition of human NCI-H23 cells assessed as cell growth at 1 uM after 48 hrs by SRB assay; details: NCI-H23, 48 h, read-out: Activity
OVCAR-8 = assay: Growth inhibition of human OVCAR8 cells assessed as cell growth at 1 uM after 48 hrs by SRB assay; details: OVCAR-8, 48 h, read-out: Activity
[18] = read-out: LC50 (the source's name)
[19] = read-out: pLC50 (the source's name) (converted)

**Q.** For `CNC(=O)NC[C@H]1O[C@@H](n2cnc3c(NC(=O)Nc4ccccc4)ncnc32)[C@H](O[Si](C)(C)C(C)(C)C)[C@@H]1CC(=O)N(C)OC`, which growth at 100 µM (U-251) is on record?
**A.** The growth at 100 µM was 37%.

**Q.** What about the growth at 100 µM (DU-145) of the same compound?
**A.** The growth at 100 µM was 60%.

**Q.** And the growth at 1000 µM (SNB-75)?
**A.** The growth at 1000 µM was 12%.

**Q.** And the growth at 1 µM (SK-OV-3)?
**A.** Its growth at 1 µM is 97%.

**Q.** And the growth at 10 µM (A549)?
**A.** The growth at 10 µM was 97%.

**Q.** What about the growth at 100 µM (NCI-H23 [1]) of the same compound?
**A.** Its growth at 100 µM is 71%.

**Q.** And the growth at 10 µM (IGROV-1 [2])?
**A.** Its growth at 10 µM is 82%.

**Q.** What about the growth at 1 µM (SF-268) of the same compound?
**A.** Its growth at 1 µM is 105%.

**Q.** What about the growth at 1 µM (NCI-H460 [3]) of the same compound?
**A.** The growth at 1 µM was 93%.

**Q.** And the growth at 0.1 µM (HCT-116)?
**A.** The growth at 0.1 µM was 93%.

**Q.** What about the GI50 (TK-10 [4]; read-out: GI50) of the same compound?
**A.** Its GI50 is 20.6 µM.

**Q.** And the CC50 (TK-10 [4]; [18])?
**A.** The CC50 was greater than 100 µM.

**Q.** What about the TGI (TK-10 [4]; read-out: TGI) of the same compound?
**A.** The TGI was greater than 100 µM.

**Q.** And the GI50 (TK-10 [4]; read-out: pGI50 (converted))?
**A.** Its GI50 is 20.4 µM.

**Q.** And the CC50 (TK-10 [4]; [19])?
**A.** The CC50 was greater than 100 µM.

**Q.** And the TGI (TK-10 [4]; read-out: pTGI (converted))?
**A.** The TGI was greater than 100 µM.

**Q.** And the growth at 0.1 µM (KM12)?
**A.** Its growth at 0.1 µM is 101%.

**Q.** What about the growth at 100 µM (UACC-257) of the same compound?
**A.** Its growth at 100 µM is 65%.

**Q.** What about the growth at 1 µM (SNB-19) of the same compound?
**A.** Its growth at 1 µM is 93%.

**Q.** What about the growth at 0.1 µM (UACC-62 [5]) of the same compound?
**A.** Its growth at 0.1 µM is 102%.

**Q.** And the growth at 10 µM (LOX IMVI)?
**A.** Its growth at 10 µM is 94%.

**Q.** What about the growth at 10 µM (NCI-H460 [6]) of the same compound?
**A.** Its growth at 10 µM is 90%.

**Q.** What about the GI50 (Malme-3M [7]; read-out: GI50) of the same compound?
**A.** Its GI50 is 11.4 µM.

**Q.** What about the LC50 (concentration killing 50% of cells) (Malme-3M [7]; read-out: LC50) of the same compound?
**A.** The LC50 (concentration killing 50% of cells) was greater than 100 µM.

**Q.** And the TGI (Malme-3M [7]; read-out: TGI)?
**A.** The TGI was greater than 100 µM.

**Q.** And the GI50 (Malme-3M [7]; read-out: pGI50 (converted))?
**A.** Its GI50 is 11.5 µM.

**Q.** What about the LC50 (concentration killing 50% of cells) (Malme-3M [7]; read-out: pLC50 (converted)) of the same compound?
**A.** The LC50 (concentration killing 50% of cells) was greater than 100 µM.

**Q.** What about the TGI (Malme-3M [7]; read-out: pTGI (converted)) of the same compound?
**A.** The TGI was greater than 100 µM.

**Q.** And the growth at 0.1 µM (M14)?
**A.** The growth at 0.1 µM was 98%.

**Q.** What about the growth at 10 µM (UO-31 [8]) of the same compound?
**A.** Its growth at 10 µM is 82%.

**Q.** What about the GI50 (IGROV-1 [9]; read-out: GI50) of the same compound?
**A.** The GI50 was 3.72 µM.

**Q.** And the CC50 (IGROV-1 [9]; [18])?
**A.** Its CC50 is greater than 100 µM.

**Q.** What about the TGI (IGROV-1 [9]; read-out: TGI) of the same compound?
**A.** The TGI was 65.7 µM.

**Q.** And the GI50 (IGROV-1 [9]; read-out: pGI50 (converted))?
**A.** The GI50 was 3.72 µM.

**Q.** And the CC50 (IGROV-1 [9]; [19])?
**A.** The CC50 was greater than 100 µM.

**Q.** And the TGI (IGROV-1 [9]; read-out: pTGI (converted))?
**A.** The TGI was 66.1 µM.

**Q.** And the growth at 100 µM (UACC-62 [10])?
**A.** Its growth at 100 µM is 69%.

**Q.** And the growth at 0.1 µM (IGROV-1 [11])?
**A.** Its growth at 0.1 µM is 89%.

**Q.** What about the growth at 1 µM (UACC-62 [12]) of the same compound?
**A.** Its growth at 1 µM is 107%.

**Q.** And the growth at 10 µM (SK-MEL-5)?
**A.** Its growth at 10 µM is 89%.

**Q.** And the growth at 1 µM (CAKI-1)?
**A.** Its growth at 1 µM is 72%.

**Q.** And the growth at 10 µM (COLO 205)?
**A.** Its growth at 10 µM is 90%.

**Q.** What about the growth at 0.1 µM (Malme-3M [13]) of the same compound?
**A.** The growth at 0.1 µM was 103%.

**Q.** And the growth at 1 µM [14]?
**A.** Its growth at 1 µM is 91%.

**Q.** What about the growth at 10 µM (NCI-H226) of the same compound?
**A.** Its growth at 10 µM is 99%.

**Q.** What about the growth at 1000 µM (HT-29) of the same compound?
**A.** The growth at 1000 µM was 17%.

**Q.** And the growth at 1000 µM (UO-31 [15])?
**A.** Its growth at 1000 µM is 32%.

**Q.** And the growth at 1 µM (HCC 2998)?
**A.** The growth at 1 µM was 97%.

**Q.** What about the growth at 1000 µM (TK-10 [16]) of the same compound?
**A.** The growth at 1000 µM was 17%.

**Q.** What about the growth at 1 µM (NCI-H23 [17]) of the same compound?
**A.** The growth at 1 µM was 103%.

**Q.** What about the growth at 1 µM (OVCAR-8) of the same compound?
**A.** The growth at 1 µM was 106%.
